Measured values published in US10538567B2, “Compounds as peptidic trigonal GLP1/glucagon/GIP receptor agonists” (priority 2016, dated 2020).
Numbered stars: 1 amine (or outer) side, 2 acyl side, 3 side chain; on linkers, the order of the positions; unused ones are H or OH. Square brackets hold non-standard residues; d marks the D form. Side chains are listed from the residue outwards. Peptide text beside a SMILES is read from it. * marks the point of attachment. Adipoyl(4R-palmitoylamino) = CCCCCCCCCCCCCCCC(=O)N[C@H](CCC(=O)*)CC(=O)O; γGlu = O=C(O)[C@H](CCC(=O)[*:2])N[*:1]; Stearoyl = CCCCCCCCCCCCCCCCCC(=O)*; AEEA = NCCOCCOCC(=O)O; Aib = CC(C)(N)C(=O)O

Experiments:
human GLP-1 receptor = molecular target: T1, human GLP-1 receptor (Homo sapiens, UniProt P43220); assay: cAMP response (HTRF) of HEK-293 cells stably expressing human GLP-1 receptor; type: cell-based; conditions: Table 8; read-out: EC50 hGLP-1R
T1 construct: expressed in transfected cells; host or cells: HEK-293
T1 sequence (P43220 24-463): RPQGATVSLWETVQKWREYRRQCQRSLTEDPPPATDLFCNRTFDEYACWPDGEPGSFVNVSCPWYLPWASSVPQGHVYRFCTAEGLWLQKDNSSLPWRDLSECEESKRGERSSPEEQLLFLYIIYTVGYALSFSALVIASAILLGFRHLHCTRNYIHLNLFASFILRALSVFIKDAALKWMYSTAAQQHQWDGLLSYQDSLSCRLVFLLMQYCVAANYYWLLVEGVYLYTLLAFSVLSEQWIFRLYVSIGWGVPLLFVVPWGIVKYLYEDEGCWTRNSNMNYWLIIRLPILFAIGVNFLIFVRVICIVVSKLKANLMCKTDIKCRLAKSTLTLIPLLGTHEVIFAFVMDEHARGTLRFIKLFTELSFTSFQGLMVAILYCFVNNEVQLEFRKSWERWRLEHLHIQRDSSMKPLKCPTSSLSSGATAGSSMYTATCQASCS
Protocol: (§1) cAMP content of cells was determined using a kit from Cisbio Corp. (cat. no. 62AM4PEJ) based on HTRF (Homogenous Time Resolved Fluorescence). For preparation, cells were split into T175 culture flasks and grown overnight to near confluency in medium (DMEM/10% FBS). Medium was then removed and cells washed with PBS lacking calcium and magnesium, followed by proteinase treatment with accutase (Sigma-Aldrich cat. no. A6964). Detached cells were washed and resuspended in assay buffer (1×HBSS; 20 mM HEPES, 0.1% BSA, 2 mM IBMX) and cellular density determined. They were then diluted to 400000 cells/ml and 25 μl-aliquots dispensed into the wells of 96-well plates. For measurement, 25 μl of test compound in assay buffer was added to the wells, followed by incubation for 30 minutes at room temperature.
(§2) Potencies of peptidic compounds at the GLP-1, glucagon and GIP receptors were determined by exposing cells expressing human glucagon receptor (hGlucagon R), human GIP receptor (hGIP-R) or human GLP-1 receptor (hGLP-1 R) to the listed compounds at increasing concentrations and measuring the formed cAMP as described in Methods.

human glucagon receptor = molecular target: T2, human glucagon receptor (Homo sapiens, UniProt P47871); assay: cAMP response (HTRF) of HEK-293 cells stably expressing human glucagon receptor; type: cell-based; conditions: Table 8; read-out: EC50 hGlucagon R
T2 construct: expressed in transfected cells; host or cells: HEK-293
T2 sequence (P47871 26-477): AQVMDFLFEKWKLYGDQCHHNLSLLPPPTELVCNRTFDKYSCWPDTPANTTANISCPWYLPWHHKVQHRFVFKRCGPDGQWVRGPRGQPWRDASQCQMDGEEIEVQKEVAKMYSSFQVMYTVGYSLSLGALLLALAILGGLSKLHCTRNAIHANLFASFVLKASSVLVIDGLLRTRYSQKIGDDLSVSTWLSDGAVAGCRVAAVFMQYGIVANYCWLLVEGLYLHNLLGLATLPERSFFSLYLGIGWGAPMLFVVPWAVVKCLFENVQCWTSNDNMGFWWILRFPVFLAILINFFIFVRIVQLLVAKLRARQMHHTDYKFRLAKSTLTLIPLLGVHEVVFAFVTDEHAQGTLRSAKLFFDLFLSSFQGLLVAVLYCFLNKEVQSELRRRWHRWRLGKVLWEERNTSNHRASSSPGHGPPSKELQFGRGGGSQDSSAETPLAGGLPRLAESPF
Protocol: as §1, §2

human GIP receptor = molecular target: T3, human GIP receptor (Homo sapiens, UniProt P48546); assay: cAMP response (HTRF) of HEK-293 cells stably expressing human GIP receptor; type: cell-based; conditions: Table 8; read-out: EC50 hGIP R
T3 construct: expressed in transfected cells; host or cells: HEK-293
T3 sequence (P48546 22-466): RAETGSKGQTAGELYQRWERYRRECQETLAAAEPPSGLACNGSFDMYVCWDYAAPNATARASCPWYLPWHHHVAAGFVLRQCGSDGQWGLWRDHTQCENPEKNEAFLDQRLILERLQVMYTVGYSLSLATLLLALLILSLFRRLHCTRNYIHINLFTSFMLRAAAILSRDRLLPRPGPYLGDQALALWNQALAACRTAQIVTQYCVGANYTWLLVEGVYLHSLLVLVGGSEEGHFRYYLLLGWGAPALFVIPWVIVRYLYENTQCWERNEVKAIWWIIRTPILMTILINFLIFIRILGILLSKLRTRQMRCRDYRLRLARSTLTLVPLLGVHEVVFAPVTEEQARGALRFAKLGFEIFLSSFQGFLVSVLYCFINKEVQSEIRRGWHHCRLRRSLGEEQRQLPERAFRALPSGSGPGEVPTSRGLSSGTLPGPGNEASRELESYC
Protocol: Agonism of compounds for the receptors was determined by functional assays measuring cAMP response of HEK-293 cell lines stably expressing human GLP-1, GIP or glucagon receptor.
as §1, with “temperature. After addition of HTRF reagents diluted in lysis buffer (kit components), the plates were incubated for 1 hr, followed by measurement of the fluorescence ratio at 665/616 nm. In vitro potency of agonists was quantified by determining the concentrations that caused 50% activation of maximal response (EC50).” for “temperature.”
as §2

[1] = Thioflavin T (ThT) assay for physical stability (fibrillation); type: physicochemical; conditions: 3 mg/ml, 100 mM acetate pH 4.5 with m-cresol, 37° C. shaking
Method in brief: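 Peptides at 3 mg/ml final with 100 μM ThT final in 100 mM acetate pH 4.5 containing 2.7 mg/mL m-cresol, eight replicates. Stressed at 37° C by repeated cycles of 10 s shaking at 960 rpm and 50 s rest. Fluorescence read every 20 minutes; lag time in hours taken from the sigmoidal kinetic curve.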

[2] = Chemical stability assessment, UPLC-UV purity loss in buffer system A; type: physicochemical; conditions: 1 mg/ml, 25 mM acetate buffer pH 4.5 with m-cresol
Protocol: Prior to the chemical stability measurement of a peptide batch, its purity was determined through UPLC/MS. For stability testing the target concentration was 1 mg pure compound/ml. Therefore solutions from solid samples were prepared in a buffer system with a concentration of 1 mg/mL compound based on the previously determined % purity:
Chemical stability buffer system A) 25 mM acetate buffer pH 4.5, 3 mg/mL L-Methionine, 2.7 mg/mL m-cresol, 18 mg/mL Glycerol 85% Chemical stability buffer system B) 25 mM phosphate buffer pH 6.0, 3 mg/mL L-Methionine, 2.7 mg/mL m-cresol, 18 mg/mL Glycerol 85%
Peptide solutions were filtered through […] pore size and filled into aliquots under aseptic conditions. At starting point, UPLC-UV was performed by injection of 2 μl of the undiluted sample.
For chemical stability testing, aliquots were stored for 28 days at 5 and 40° C. After this time course the samples were centrifuged for 15 min at 2500 RCF. Then 2 μl of the undiluted supernatant were analysed with UPLC-UV.
The chemical stability was rated through the relative loss of purity calculated by the equation: [(purity at starting point)−(purity after 28 days at X° C.)]/(purity at starting point)]*100%
The purity is calculated as
[(peak area peptide)/(total peak area)]*100%
Peptide samples were prepared in Chemical stability buffer system A and the stability was assessed as described in Methods.

| EC50 (human GLP-1 receptor) [pM] | EC50 (human glucagon receptor) [pM] | EC50 (human GIP receptor) [pM] | Lag time before increase [1] [h] | Chemical stability [relative purity loss 28 days 40° C.] (%) at pH 4.5 [2] [%] | SMILES |
| --- | --- | --- | --- | --- | --- |
| 3.4 | 1.9 | 2.6 | >45 | – | CCCCCCCCCCCCCCCCCC(=O)N[C@@H](CCC(=O)NCCCC[C@H](NC(=O)[C@H](CC(C)C)NC(=O)[C@H](CCCCN)NC(=O)[C@H](CO)NC(=O)[C@H](CC(C)C)NC(=O)[C@H](CC(=O)O)NC(=O)[C@H](CO)NC(=O)[C@@H](NC(=O)[C@H](Cc1ccccc1)NC(=O)[C@@H](NC(=O)CNC(=O)[C@H](Cc1c[nH]cn1)NC(=O)C(C)(C)NC(=O)[C@@H](N)Cc1c[nH]cn1)[C@@H](C)O)[C@@H](C)O)C(=O)N[C@@H](CCC(=O)O)C(=O)N[C@@H](CCC(=O)O)C(=O)N[C@@H](CCC(N)=O)C(=O)N[C@@H](CCCNC(=N)N)C(=O)N[C@@H](CCC(N)=O)C(=O)N[C@@H](CCCCN)C(=O)N[C@@H](CCC(=O)O)C(=O)N[C@@H](Cc1ccccc1)C(=O)N[C@H](C(=O)N[C@@H](CCC(=O)O)C(=O)N[C@@H](Cc1c[nH]c2ccccc12)C(=O)N[C@@H](CC(C)C)C(=O)N[C@@H](CCCCN)C(=O)N[C@@H](C)C(=O)NCC(=O)NCC(=O)N1CCC[C@H]1C(=O)N1CCC[C@H]1C(=O)N[C@@H](CO)C(=O)NC(C)(C)C(=O)N[C@@H](CCCCN)C(=O)N1CCC[C@H]1C(=O)N1CCC[C@H]1C(=O)N1CCC[C@H]1C(=O)N[C@@H](CCCCN)C(N)=O)[C@@H](C)CC)C(=O)O [SEQ ID NO: 21, H-Aib-H-G-T-F-T-S-D-L-S-K-L-K[gGlu-Stea]-E-E-Q-R-Q-K-E-F-I-E-W-L-K-A-G-G-P-P-S-Aib-K-P-P-P-K-NH2] (H-H[Aib]HGTFTSDLSKLK([γGlu-Stearoyl])EEQRQKEFIEWLKAGGPPS[Aib]KPPPK-NH2) |
| 1.4 | – | 1.5 | >45 | 8.6 | CCCCCCCCCCCCCCCC(=O)N[C@H](CCC(=O)NCCOCCOCC(=O)N[C@@H](CCC(=O)NCCCC[C@H](NC(=O)[C@H](CC(C)C)NC(=O)[C@H](CCCCN)NC(=O)[C@H](CO)NC(=O)[C@H](CC(C)C)NC(=O)[C@H](CC(=O)O)NC(=O)[C@H](CO)NC(=O)[C@@H](NC(=O)[C@H](Cc1ccccc1)NC(=O)[C@@H](NC(=O)CNC(=O)[C@H](Cc1c[nH]cn1)NC(=O)C(C)(C)NC(=O)[C@@H](N)Cc1c[nH]cn1)[C@@H](C)O)[C@@H](C)O)C(=O)N[C@@H](CCC(=O)O)C(=O)N[C@@H](CCC(=O)O)C(=O)N[C@@H](CCC(N)=O)C(=O)N[C@@H](CCCNC(=N)N)C(=O)N[C@@H](CCC(N)=O)C(=O)N[C@@H](CCCCN)C(=O)N[C@@H](CCC(=O)O)C(=O)N[C@@H](Cc1ccccc1)C(=O)N[C@H](C(=O)N[C@@H](CCC(=O)O)C(=O)N[C@@H](Cc1c[nH]c2ccccc12)C(=O)N[C@@H](CC(C)C)C(=O)N[C@@H](CCCCN)C(=O)N[C@@H](C)C(=O)N[C@H](C)C(=O)NCC(=O)N[C@@H](Cc1c[nH]cn1)C(=O)N1CCC[C@H]1C(=O)N[C@@H](CO)C(=O)NC(C)(C)C(=O)N[C@@H](CCCCN)C(=O)N1CCC[C@H]1C(=O)N1CCC[C@H]1C(=O)N1CCC[C@H]1C(=O)N[C@@H](CCCCN)C(N)=O)[C@@H](C)CC)C(=O)O)CC(=O)O [SEQ ID NO: 23, H-Aib-H-G-T-F-T-S-D-L-S-K-L-K[gGlu-AEEA-gAAA-Palm]-E-E-Q-R-Q-K-E-F-I-E-W-L-K-A-dAla-G-H-P-S-Aib-K-P-P-P-K-NH2] (H-H[Aib]HGTFTSDLSKLK([γGlu-AEEA-Adipoyl(4R-palmitoylamino)])EEQRQKEFIEWLKA[dA]GHPS[Aib]KPPPK-NH2) |
